Laboratory results: patent US8501786B2, “Hydroxymethyl pyrrolidines as beta 3 adrenergic receptor agonists” (Merck Sharp & Dohme Corp., priority 2009, dated 2013)
Counter-ions that a name gives are not always drawn.

molecular target: T1, human β3 adrenergic receptor (Homo sapiens, UniProt P13945); experiment: Functional assay: cAMP production (LANCE TR-FRET) in CHO cells stably transfected with cloned β3 adrenergic receptor; assay type: cell-based; conditions: Table 2; cAMP production, CHO cells expressing human β3 AR; read-out: Human β3 functional
T1 construct: stably transfected with the cloned β-adrenergic receptor (β1, β2 or β3); expressed in transfected cells; host or cells: Chinese hamster ovary (CHO) cells, stably transfected
T1 sequence (P13945 whole entry): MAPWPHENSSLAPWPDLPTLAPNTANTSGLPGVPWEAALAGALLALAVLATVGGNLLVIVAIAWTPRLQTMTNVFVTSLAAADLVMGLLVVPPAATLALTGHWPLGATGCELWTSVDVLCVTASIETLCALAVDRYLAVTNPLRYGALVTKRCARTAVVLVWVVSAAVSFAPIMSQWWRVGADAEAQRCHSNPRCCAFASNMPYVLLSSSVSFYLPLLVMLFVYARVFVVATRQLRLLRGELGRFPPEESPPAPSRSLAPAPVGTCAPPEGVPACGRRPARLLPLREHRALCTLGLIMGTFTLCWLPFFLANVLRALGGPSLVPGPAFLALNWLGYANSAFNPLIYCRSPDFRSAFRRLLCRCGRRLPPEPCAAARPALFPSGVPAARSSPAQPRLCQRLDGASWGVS
Method: Functional Assay: cAMP production in response to ligand is measured according to Barton, et al. (1991, Agonist-induced desensitization of D2 dopamine receptors in human Y-79 retinoblastoma cells. Mol. Pharmacal. v3229:650-658) modified as follows, cAMP production is measured using a homogenous time-resolved fluorescence resonance energy transfer immunoassay (LANCE™, Perkin Elmer) according to the manufacture's instructions. Chinese hamster ovary (CHO) cells, stably transfected with the cloned β-adrenergic receptor (β1, β2 or β3) are harvested after 3 days of subculturing. Harvesting of cells is done with Enzyme-free Dissociation Media (Specialty Media). Cells are then counted and resuspended in assay buffer (Hank's Balanced salt solution supplemented with 5 mM HEPES, […]) containing a phosphodiesterase inhibitor (IBMX, 0.6 mM). The reaction is initiated by mixing 6,000 cells in 6 μL with 6 μL Alexa Fluor labeled cAMP antibody (LANCE™ kit) which is then added to an assay well containing 12 μL of compound (diluted in assay buffer to 2× final concentration). The reaction proceeds for 30 min at room temperature and is terminated by the addition of 24 ul detection buffer (LANCE™ kit). The assay plate is then incubated for 1 h at room temperature and time-resolved fluorescence measured on a Perkin Elmer Envision reader or equivalent. The unknown cAMP level is determined by comparing fluorescence levels to a cAMP standard curve.
The non-selective, full agonist β-adrenergic ligand isoproterenol is used at all three receptors to determine maximal stimulation. The human β3 adrenergic receptor (AR) selective ligand (S)-N-[4-[2-[[2-hydroxy-3-(4-hydroxyphenoxy)propyl]amino]ethyl]-phenyl]-4-iodobenzenesulfonamide is used as a control in all assays. Isoproterenol is titrated at a final concentration in the assay of 10^-10 M to 10-5 and the selective ligand (S)-N-[4-[2-[[2-hydroxy-3-(4-hydroxyphenoxy)propyl]amino]ethyl]phenyl]-4-iodobenzenesulfonamide is titrated at the β3 receptor at concentration of 10^-10 M to 10^-5 M. Unknown ligands are titrated at all 3 β-adrenergic receptor subtypes at a final concentration in the assay of 10^-10 M to 10^-5 M to determine the EC50. The EC50 is defined as the concentration of compound that gives 50% activation of its own maximum. Data are analyzed using Microsoft Excel and Graphpad Prism or an internally developed data analysis software package.

Question: For `O=C(Cn1cnc2ccccc2c1=O)Nc1ccc(CC2CC[C@H]([C@H](O)c3cccnc3)N2)cc1` (single isomer, unassigned) [Example 12], which EC50 is on record?
Answer: Its EC50 is 1 to 10 nM.

Question: For `O=C(Cn1cnc2ccccc2c1=O)Nc1ccc(CC2CC[C@H]([C@H](O)c3cccnc3)N2)cc1` (single isomer, unassigned) [Example 64], which EC50 is on record?
Answer: The EC50 was 1 to 10 nM.

same assay, conditions: Table 3; cAMP production, CHO cells expressing human β3 AR; read-out: Human β3 functional

Question: For `CC(C(=O)Nc1ccc(CC2CC[C@H]([C@H](O)c3cccnc3)N2)cc1)n1cccn1` (single isomer, unassigned) [Example 97], which EC50 is on record?
Answer: Its EC50 is 11 to 100 nM.

Question: `CC(C(=O)Nc1ccc(CC2CC[C@H]([C@H](O)c3cccnc3)N2)cc1)n1cccn1` (single isomer, unassigned) [Example 98] was tested. Which EC50 did it give?
Answer: The EC50 was 11 to 100 nM.

Question: Which EC50 does the source give for `Cc1ccn(C(C)C(=O)Nc2ccc(CC3CC[C@H]([C@H](O)c4cccnc4)N3)cc2)n1` (single isomer, unassigned) [Example 99] here?
Answer: Its EC50 is 11 to 100 nM.

Question: Which EC50 does the source give for `Cc1ccn(C(C)C(=O)Nc2ccc(CC3CC[C@H]([C@H](O)c4cccnc4)N3)cc2)n1` (single isomer, unassigned) [Example 100] here?
Answer: The EC50 was 1000 to 3000 nM.

Question: `Cc1nc(C(C)C(=O)Nc2ccc(CC3CC[C@H]([C@H](O)c4cccnc4)N3)cc2)cs1` (single isomer, unassigned) [Example 101] was tested. Which EC50 did it give?
Answer: Its EC50 is 1 to 10 nM.

Question: `Cc1nc(C(C)C(=O)Nc2ccc(CC3CC[C@H]([C@H](O)c4cccnc4)N3)cc2)cs1` (single isomer, unassigned) [Example 102] was tested. Which EC50 did it give?
Answer: Its EC50 is 101 to 1000 nM.

Question: Which EC50 does the source give for `Cc1nc(C(C)C(=O)Nc2ccc(CC3CC[C@H]([C@H](O)c4cccnc4)N3)cc2)c(C)s1` (single isomer, unassigned) [Example 103] here?
Answer: Its EC50 is 101 to 1000 nM.

Question: Which EC50 does the source give for `Cc1nc(C(C)C(=O)Nc2ccc(CC3CC[C@H]([C@H](O)c4cccnc4)N3)cc2)c(C)s1` (single isomer, unassigned) [Example 104] here?
Answer: The EC50 was 1000 to 3000 nM.

Question: `CC(C(=O)Nc1ccc(CC2CC[C@H]([C@H](O)c3cccnc3)N2)cc1)c1csc(N)n1` (single isomer, unassigned) [Example 105] was tested. Which EC50 did it give?
Answer: The EC50 was 1 to 10 nM.

Question: With `CC(C(=O)Nc1ccc(CC2CC[C@H]([C@H](O)c3cccnc3)N2)cc1)c1csc(N)n1` (single isomer, unassigned) [Example 106] as the molecule, how does the EC50 read?
Answer: The EC50 was 1 to 10 nM.

Question: With `CCCC(C(=O)Nc1ccc(CC2CC[C@H]([C@H](O)c3cccnc3)N2)cc1)c1csc(N)n1` (single isomer, unassigned) [Example 107] as the molecule, how does the EC50 read?
Answer: Its EC50 is 11 to 100 nM.

Question: Which EC50 does the source give for `CCCC(C(=O)Nc1ccc(CC2CC[C@H]([C@H](O)c3cccnc3)N2)cc1)c1csc(N)n1` (single isomer, unassigned) [Example 108] here?
Answer: The EC50 was 1 to 10 nM.

Question: `CCCC(C(=O)Nc1ccc(CC2CC[C@H]([C@H](O)c3cccnc3)N2)cc1)c1cnc(N)s1` (single isomer, unassigned) [Example 109] was tested. Which EC50 did it give?
Answer: The EC50 was 1 to 10 nM.

Question: For `C#CCC(C(=O)Nc1ccc(CC2CC[C@H]([C@H](O)c3cccnc3)N2)cc1)c1cnc(N)s1` (single isomer, unassigned) [Example 110], which EC50 is on record?
Answer: Its EC50 is 1 to 10 nM.

Question: For `CC(C(=O)Nc1ccc(CC2CC[C@H]([C@H](O)c3cccnc3)N2)cc1)c1csc(C(F)(F)F)n1` (single isomer, unassigned) [Example 111], which EC50 is on record?
Answer: The EC50 was 11 to 100 nM.

Question: How did the EC50 turn out when `CC(C(=O)Nc1ccc(CC2CC[C@H]([C@H](O)c3cccnc3)N2)cc1)c1csc(C(F)(F)F)n1` (single isomer, unassigned) [Example 112] was run?
Answer: The EC50 was 101 to 1000 nM.

Question: `Nc1nc2c(s1)CCC2C(=O)Nc1ccc(CC2CC[C@H]([C@H](O)c3cccnc3)N2)cc1` (single isomer, unassigned) [Example 113] was tested. Which EC50 did it give?
Answer: Its EC50 is less than 1 nM.

Question: Which EC50 does the source give for `Nc1nc2c(s1)CCC2C(=O)Nc1ccc(CC2CC[C@H]([C@H](O)c3cccnc3)N2)cc1` (single isomer, unassigned) [Example 114] here?
Answer: The EC50 was 11 to 100 nM.

Question: How did the EC50 turn out when `Cc1nc2c(s1)CCC2C(=O)Nc1ccc(CC2CC[C@H]([C@H](O)c3cccnc3)N2)cc1` (single isomer, unassigned) [Example 115] was run?
Answer: The EC50 was 1 to 10 nM.

Question: Which EC50 does the source give for `Cc1nc2c(s1)CCC2C(=O)Nc1ccc(CC2CC[C@H]([C@H](O)c3cccnc3)N2)cc1` (single isomer, unassigned) [Example 116] here?
Answer: Its EC50 is 101 to 1000 nM.

Question: For `Cc1nc2c(s1)CCC2C(=O)Nc1ccc(CC2CC[C@H]([C@H](O)c3cccnc3)N2)cc1` (single isomer, unassigned) [Example 117], which EC50 is on record?
Answer: Its EC50 is 11 to 100 nM.

Question: For `Cc1nc2c(s1)CCC2C(=O)Nc1ccc(CC2CC[C@H]([C@H](O)c3cccnc3)N2)cc1` (single isomer, unassigned) [Example 118], which EC50 is on record?
Answer: The EC50 was 101 to 1000 nM.

Question: For `CCc1nc2c(s1)CCC2C(=O)Nc1ccc(CC2CC[C@H]([C@H](O)c3cccnc3)N2)cc1` (single isomer, unassigned) [Example 119], which EC50 is on record?
Answer: The EC50 was 101 to 1000 nM.

Question: `CCc1nc2c(s1)CCC2C(=O)Nc1ccc(CC2CC[C@H]([C@H](O)c3cccnc3)N2)cc1` (single isomer, unassigned) [Example 120] was tested. Which EC50 did it give?
Answer: The EC50 was 11 to 100 nM.

Question: For `O=C(Nc1ccc(CC2CC[C@H]([C@H](O)c3cccnc3)N2)cc1)C1CCc2sc(C3CC3)nc21` (single isomer, unassigned) [Example 121], which EC50 is on record?
Answer: Its EC50 is 11 to 100 nM.

Question: For `O=C(Nc1ccc(CC2CC[C@H]([C@H](O)c3cccnc3)N2)cc1)C1CCc2sc(C3CC3)nc21` (single isomer, unassigned) [Example 122], which EC50 is on record?
Answer: Its EC50 is 101 to 1000 nM.

Question: `CC(C)c1nc2c(s1)CCC2C(=O)Nc1ccc(CC2CC[C@H]([C@H](O)c3cccnc3)N2)cc1` (single isomer, unassigned) [Example 123] was tested. Which EC50 did it give?
Answer: Its EC50 is 101 to 1000 nM.

Question: How did the EC50 turn out when `CC(C)c1nc2c(s1)CCC2C(=O)Nc1ccc(CC2CC[C@H]([C@H](O)c3cccnc3)N2)cc1` (single isomer, unassigned) [Example 124] was run?
Answer: Its EC50 is 11 to 100 nM.

Question: With `COCc1nc2c(s1)CCC2C(=O)Nc1ccc(CC2CC[C@H]([C@H](O)c3cccnc3)N2)cc1` (single isomer, unassigned) [Example 125] as the molecule, how does the EC50 read?
Answer: The EC50 was 11 to 100 nM.

Question: With `COCc1nc2c(s1)CCC2C(=O)Nc1ccc(CC2CC[C@H]([C@H](O)c3cccnc3)N2)cc1` (single isomer, unassigned) [Example 126] as the molecule, how does the EC50 read?
Answer: The EC50 was 101 to 1000 nM.

Question: `O=C(Nc1ccc(CC2CC[C@H]([C@H](O)c3cccnc3)N2)cc1)C1CCc2cccnc21` (single isomer, unassigned) [Example 127] was tested. Which EC50 did it give?
Answer: Its EC50 is 1 to 10 nM.

Question: `O=C(Nc1ccc(CC2CC[C@H]([C@H](O)c3cccnc3)N2)cc1)C1CCc2cccnc21` (single isomer, unassigned) [Example 128] was tested. Which EC50 did it give?
Answer: The EC50 was 1 to 10 nM.

Question: How did the EC50 turn out when `Cc1nc2c(s1)CCC2(C)C(=O)Nc1ccc(CC2CC[C@H]([C@H](O)c3cccnc3)N2)cc1` (single isomer, unassigned) [Example 129] was run?
Answer: The EC50 was 1000 to 3000 nM.

Question: How did the EC50 turn out when `Cc1nc2c(s1)CCC2(C)C(=O)Nc1ccc(CC2CC[C@H]([C@H](O)c3cccnc3)N2)cc1` (single isomer, unassigned) [Example 130] was run?
Answer: Its EC50 is 101 to 1000 nM.

Question: `Cc1nc2c(s1)CCCC2C(=O)Nc1ccc(CC2CC[C@H]([C@H](O)c3cccnc3)N2)cc1` (single isomer, unassigned) [Example 131] was tested. Which EC50 did it give?
Answer: Its EC50 is 1 to 10 nM.

Question: `Cc1nc2c(s1)CCCC2C(=O)Nc1ccc(CC2CC[C@H]([C@H](O)c3cccnc3)N2)cc1` (single isomer, unassigned) [Example 132] was tested. Which EC50 did it give?
Answer: The EC50 was 101 to 1000 nM.

Question: Which EC50 does the source give for `Cc1nc2c(s1)CCCC2C(=O)Nc1ccc(CC2CC[C@H]([C@H](O)c3cccnc3)N2)cc1` (single isomer, unassigned) [Example 133] here?
Answer: The EC50 was 11 to 100 nM.

Question: Which EC50 does the source give for `Cc1nc2c(s1)CCCC2C(=O)Nc1ccc(CC2CC[C@H]([C@H](O)c3cccnc3)N2)cc1` (single isomer, unassigned) [Example 134] here?
Answer: The EC50 was 11 to 100 nM.

Question: With `O=C(Cc1nc2c(s1)CCC2C(=O)Nc1ccc(CC2CC[C@H]([C@H](O)c3cccnc3)N2)cc1)NCc1ccccc1` (single isomer, unassigned) [Example 135] as the molecule, how does the EC50 read?
Answer: Its EC50 is 11 to 100 nM.

same assay, conditions: cAMP production, CHO cells expressing human β3 AR; read-out: human Beta-3 agonist functional activity

Question: With `C[C@H](C(=O)Nc1ccc(C[C@@H]2CC[C@H]([C@H](O)c3cccnc3)N2)cc1)c1ccccn1` (single isomer, unassigned) [Example 93, trifluoroacetic acid salt] as the molecule, how does the EC50 read?
Answer: Its EC50 is less than 100 nM.

Question: How did the EC50 turn out when `C[C@@H](C(=O)Nc1ccc(C[C@@H]2CC[C@H]([C@H](O)c3cccnc3)N2)cc1)c1ccccn1` (single isomer, unassigned) [Example 94, trifluoroacetic acid salt] was run?
Answer: Its EC50 is less than 100 nM.

Question: `C[C@@H](C(=O)Nc1ccc(C[C@@H]2CC[C@H]([C@H](O)c3cccnc3)N2)cc1)n1ccccc1=O` (single isomer, unassigned) [Example 95] was tested. Which EC50 did it give?
Answer: The EC50 was less than 10 nM.

Question: For `C[C@H](C(=O)Nc1ccc(C[C@@H]2CC[C@H]([C@H](O)c3cccnc3)N2)cc1)n1ccccc1=O` (single isomer, unassigned) [Example 96, trifluoroacetic acid salt], which EC50 is on record?
Answer: The EC50 was less than 10 nM.
